In one test the target is MCL-1 (Homo sapiens (Human), UniProt Q07820, K194A/K197A/R201A). Briefly: Protein-compound interaction assay (SPR assay, Assay 9). The class given is binding. To be noted: for Kd: KD (geometric mean); for koff: read-out: koff (geometric mean), SPR, 25° C.; for kon: read-out: kon (geometric mean), SPR, 25° C. An excerpt: Assay 9 Protein-Compound Interaction Assay (SPR Assay)
The ability of the compounds described in this invention to bind to MCL-1 may be determined using surface plasmon resonance (SPR). This allows for the quantification of binding in terms of the equilibrium dissociation constant (KD [M]), as well as association and dissociation rate constants (kon [1/Ms] and koff [1/s], respectively). The measurements may be performed using Biacore® T200 or Biacore® S200 instruments (GE Healthcare).
Briefly, carboxymethylated dextran biosensor chips (Series S Sensor Chip CMS, GE Healthcare) were activated with 1-ethyl-3-(3-dimethylaminopropyl)-carbodiimide hydrochloride (EDC) and N-hydroxysuccinimide (NHS) according to the supplier's instructions. MBP-MCL-1 was diluted in 1×PBS-P+ (GE Healthcare) and injected on the activated chip surface. Subsequently, a solution of 1 M ethanolamine-HCl (GE Healthcare) was injected to block unreacted groups, resulting in approximately 400-2500 response units (RU) of immobilized protein. A reference surface was generated by treatment with NHS-EDC and ethanolamine-HCl. […] Compounds were injected for 60 s followed by a dissociation time of up to 1000 s.
The double-referenced sensorgrams were fit to a simple reversible Langmuir 1:1 reaction mechanism as implemented in the Biacore® T200 and S200 evaluation software (T200 evaluation software version 2.0 and S200 evaluation software version 1.0, GE Healthcare).
In general terms: In SPR one partner is held on a chip, and binding of the other changes the refractive index at the surface.

The next test deals with MV-4-11 cells. Briefly: Antiproliferation assay MV-4-11 (Assay 7). The class given is cell-based. Here is the method:
(§1) Assessment of the Anti-Proliferative Effect of Compounds in Different Cell Lines
(§2) The impact of compounds on the proliferation of different cell lines was assessed using the CellTiter-Glo® Luminescent Cell Viability reagent from Promega (G7573).
(§3) In parallel, cells were plated in a reference (day 0) plate for time zero determination. Cells were incubated in a humidified incubator at 37° C. overnight.
(§4) Rim wells were excluded. The cells were incubated for 72 h hours in a humidified incubator at 37° C. The day 0 plate was measured by adding 30 μL/well of CTG solution (CellTiter-Glo® Luminescent Cell Viability reagent, Promega G7573) to time zero wells in the reference plate followed by a 10 minutes incubation and luminescence reading at 0.1 ms. using the PHERAstar FS microplate reader (BMG Labtech).
(§5) After 72 h incubation, the treated plates were measured in the same way as the day 0 plate mentioned above. The Bella DRC Master Sheet was used to calculate IC50s, with CI=day 0 values and C0=DMSO control values.

The test system of another test is DMS-114 cells. Briefly: Antiproliferation assay DMS-114 (Assay 7). The format is cell-based. To be noted: Homo sapiens, read-out: Antiproli DM-S114 IC50 median. Here is the method:
as §1, §2, §3, §4, §5

The subject of the next test is SNU-389 cells. Briefly: Antiproliferation assay SNU-389 (Assay 7). The format is cell-based. To be noted: 72 h, read-out: Antiproli SNU-389 IC50. In short, it runs like this: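 Cells were plated overnight at 37° C, then compound-treated for 72 h. Viability was measured by CellTiter-Glo luminescence.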
[1] abbreviates: Homo sapiens, MV4-11, 72 h, CellTiter-Glo, read-out: Antiproli MV-4-11 IC50 median.
Setting [2] is: 72 h, CellTiter-Glo; read-out: Antiproli MV-4-11 IC50 median.
Setting [3] is: DMS-114 cells, 72 h, CellTiter-Glo.

From patent US11440923B2, “Substituted macrocyclic indole derivatives” (Bayer Aktiengesellschaft, priority 2017, dated 2022) come the findings set out here.

Structures can show the parent of a compound that is named as a salt. Where two headings read alike, the source gives them in different places.

MCL-1, sequence (Q07820 whole entry K194A/K197A/R201A, looked up): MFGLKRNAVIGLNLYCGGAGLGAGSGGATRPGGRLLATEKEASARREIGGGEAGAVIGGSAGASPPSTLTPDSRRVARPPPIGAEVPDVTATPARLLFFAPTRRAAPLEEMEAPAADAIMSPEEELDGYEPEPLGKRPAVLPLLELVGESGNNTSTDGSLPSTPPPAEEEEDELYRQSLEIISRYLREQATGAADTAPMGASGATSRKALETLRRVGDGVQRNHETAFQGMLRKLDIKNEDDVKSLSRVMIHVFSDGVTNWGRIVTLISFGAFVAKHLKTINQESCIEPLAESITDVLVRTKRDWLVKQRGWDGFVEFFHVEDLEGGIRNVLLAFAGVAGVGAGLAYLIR

For the molecule `CCc1c2c(nn1C)C(CCN1CCOCC1)OCCCCn1c(C(=O)O)c(CCCOc3cccc4ccccc34)c3ccc(F)c-2c31` (single isomer, unassigned; enantiomer 2) [Example 12, 3-ethyl-4-fluoro-2-methyl-15-[2-(morpholin-4-yl)ethyl]-7-{3-[(naphthalen-1-yl)oxy]propyl}-2,10,11,12,13,15-hexahydropyrazolo[4′,3′:9,10][1,6]oxazacycloundecino[8,7,6-hi]indole-8-carboxylic Acid—N-ethylethanamine Salt (Enantiomer 2)], at MCL-1 (SPR, 25° C.), the Kd (commonly the concentration at which binding is half-saturated) stood at 22 nM, the “koff (geometric mean)” value is reported as 3.4 E−3 1/s and the “kon (geometric mean)” value was 1.5 E5 1/M 1/s. Besides, the IC50 (in general, the point on the concentration scale where inhibition reaches its midpoint) in the test with MV-4-11 cells (read-out: Antiproli MV-4-11 IC50 median; 72 h, CellTiter-Glo) amounted to 14400 nM.

For the molecule `Cc1c2c(nn1C)C(CCN1CCOCC1)OCCCCn1c(C(=O)O)c(CCCOc3cccc4ccccc34)c3ccc(Cl)c-2c31` (racemic) [Example 13, (rac)-4-chloro-2,3-dimethyl-15-[2-(morpholin-4-yl)ethyl]-7-{3-[(naphthalen-1-yl)oxy]propyl}-2,10,11,12,13,15-hexahydropyrazolo[4′,3′:9,10][1,6]oxazacycloundecino[8,7,6-hi]indole-8-carboxylic Acid], in the test with MV-4-11 cells (setting [1]), the IC50 was 220 nM.

Regarding `Cc1c2c(nn1C)C(CCN1CCOCC1)OCCCCn1c(C(=O)O)c(CCCOc3cccc4ccccc34)c3ccc(Cl)c-2c31` (single isomer, unassigned; enantiomer 2) [Example 15, 4-chloro-2,3-dimethyl-15-[2-(morpholin-4-yl)ethyl]-7-{3-[(naphthalen-1-yl)oxy]propyl}-2,10,11,12,13,15-hexahydropyrazolo[4′,3′:9,10][1,6]oxazacycloundecino[8,7,6-hi]indole-8-carboxylic Acid (Enantiomer 2)], in the test on MV-4-11 cells (setting [2]), the IC50 came out at 7840 nM.

`CCC1OCCCCn2c(C(=O)O)c(CCCOc3cccc4ccccc34)c3ccc(Cl)c(c32)-c2c1nn(C)c2C` (single isomer, unassigned; enantiomer 1) [Example 29, (+)-4-chloro-15-ethyl-2,3-dimethyl-7-{3-[(naphthalen-1-yl)oxy]propyl}-2,10,11,12,13,15-hexahydropyrazolo[4′,3′:9,10][1,6]oxazacycloundecino[8,7,6-hi]indole-8-carboxylic Acid—N-ethylethanamine Salt (Enantiomer 1)] came in with a Kd at MCL-1 (SPR, 25° C.) of 8.3 nM. For the same molecule, on MCL-1, the koff (usually the first-order rate constant of dissociation) worked out at 0.014 s⁻¹ and the on-rate (kon) – broadly, the rate constant with which the complex forms – worked out at 1.7e+06 M⁻¹ s⁻¹.

At MCL-1 (SPR, 25° C.), `CCc1c2c(nn1C)C(CCC1CCOCC1)OCCCCn1c(C(=O)O)c(CCCOc3cccc4cc(F)ccc34)c3ccc(Cl)c-2c31` (single isomer, unassigned; enantiomer 1) [Example 61, 4-chloro-3-ethyl-7-{3-[(6-fluoronaphthalen-1-yl)oxy]propyl}-2-methyl-15-[2-(oxan-4-yl)ethyl]-2,10,11,12,13,15-hexahydropyrazolo[4′,3′:9,10][1,6]oxazacycloundecino[8,7,6-hi]indole-8-carboxylic Acid (Enantiomer 1)] had a Kd of 1.3 nM. At MCL-1, the koff was 0.0021 s⁻¹ and the kon was determined as 1.6e+06 M⁻¹ s⁻¹.

With `Cc1c2c(nn1C)C(CCO)OCCCCn1c(C(=O)O)c(CCCOc3cccc4ccccc34)c3ccc(Cl)c-2c31` (single isomer, unassigned; enantiomer 1) [Example 31, (+)-4-chloro-15-(2-hydroxyethyl)-2,3-dimethyl-7-{3-[(naphthalen-1-yl)oxy]propyl}-2,10,11,12,13,15-hexahydropyrazolo[4′,3′:9,10][1,6]oxazacycloundecino[8,7,6-hi]indole-8-carboxylic Acid (Enantiomer 1)], on MCL-1 (SPR, 25° C.), binding was put at a Kd of 1.8 nM. At MCL-1, the koff came to 0.008 s⁻¹ and the kon was determined as 4.4e+06 M⁻¹ s⁻¹.

For the molecule `Cc1c2c(nn1C)C(CCN1CCOCC1)OCCCCn1c(C(=O)O)c(CCCOc3cccc4cc(F)ccc34)c3ccc(Cl)c-2c31` (single isomer, unassigned; enantiomer 1) [Example 17, 4-chloro-7-{3-[(6-fluoronaphthalen-1-yl)oxy]propyl}-2,3-dimethyl-15-[2-(morpholin-4-yl)ethyl]-2,10,11,12,13,15-hexahydropyrazolo[4′,3′:9,10][1,6]oxazacycloundecino[8,7,6-hi]indole-8-carboxylic Acid—N-ethylethanamine (Enantiomer 1)], at MCL-1 (SPR, 25° C.), binding was characterised by a dissociation constant (Kd) of 0.77 nM. For the same molecule, at MCL-1, the koff worked out at 0.015 s⁻¹ and the kon came to 2e+07 M⁻¹ s⁻¹.

On MCL-1 (SPR, 25° C.), `CCc1c2c(nn1C)C(CCOC)OCCCCn1c(C(=O)O)c(CCCOc3cccc4cc(F)ccc34)c3ccc(Cl)c-2c31` (single isomer, unassigned; enantiomer 1) [Example 42, (+)-4-chloro-3-ethyl-7-{3-[(6-fluoronaphthalen-1-yl)oxy]propyl}-15-(2-methoxyethyl)-2-methyl-2,10,11,12,13,15-hexahydropyrazolo[4′,3′:9,10][1,6]oxazacycloundecino[8,7,6-hi]indole-8-carboxylic Acid—N-ethylethanamine Salt (Enantiomer 1)] returned a Kd of 2.8 nM. At MCL-1, the koff was determined as 0.0032 s⁻¹ and the kon stood at 1.2e+06 M⁻¹ s⁻¹. Further, the IC50 with DMS-114 cells (DMS-114, 72 h) stood at 156 nM. Besides, the IC50 in the test on SNU-389 cells was 270 nM.

Turning to `Cc1c2c(nn1C)C(CCN1CCOCC1)OCCCCn1c(C(=O)O)c(CCCOc3cccc4ccccc34)c3ccc(Cl)c-2c31` (single isomer, unassigned; enantiomer 1) [Example 14, 4-chloro-2,3-dimethyl-15-[2-(morpholin-4-yl)ethyl]-7-{3-[(naphthalen-1-yl)oxy]propyl}-2,10,11,12,13,15-hexahydropyrazolo[4′,3′:9,10][1,6]oxazacycloundecino[8,7,6-hi]indole-8-carboxylic Acid (Enantiomer 1)], binding on MCL-1 (SPR, 25° C.) was put at a Kd of 1.3 nM. For the same molecule, the koff at MCL-1 turned out to be 0.031 s⁻¹. For the same molecule, on MCL-1, the kon is 2.3e+07 M⁻¹ s⁻¹. The results for the IC50 in the test on DMS-114 cells (setting [3]), in the test on MV-4-11 cells (setting [2]) and in the test with SNU-389 cells (CellTiter-Glo) were 150 nM, 37.6 nM and 183 nM, respectively.

`CCc1c2c(nn1C)C(CCO)OCCCCn1c(C(=O)O)c(CCCOc3cccc4cc(F)ccc34)c3ccc(Cl)c-2c31` (single isomer, unassigned; enantiomer 1) [Example 45, (+)-4-chloro-3-ethyl-7-{3-[(6-fluoronaphthalen-1-yl)oxy]propyl}-15-(2-hydroxyethyl)-2-methyl-2,10,11,12,13,15-hexahydropyrazolo[4′,3′:9,10][1,6]oxazacycloundecino[8,7,6-hi]indole-8-carboxylic Acid (Enantiomer 1)] returned a Kd at MCL-1 (SPR, 25° C.) of 2.3 nM. For the same molecule, on MCL-1, the koff turned out to be 0.0068 s⁻¹ and the kon stood at 3e+06 M⁻¹ s⁻¹. The IC50 in the test with DMS-114 cells (setting [3]) came to 298 nM. Besides, the IC50 with SNU-389 cells (CellTiter-Glo) is 350 nM.

As for `Cc1c2c(nn1C)C(CCN1CCOCC1)OCCCCn1c(C(=O)O)c(CCCOc3cccc4cc(F)ccc34)c3ccc(F)c-2c31` (racemic) [Example 19, (rac)-4-fluoro-7-{3-[(6-fluoronaphthalen-1-yl)oxy]propyl}-2,3-dimethyl-15-[2-(morpholin-4-yl)ethyl]-2,10,11,12,13,15-hexahydropyrazolo[4′,3′:9,10][1,6]oxazacycloundecino[8,7,6-hi]indole-8-carboxylic Acid], in the test with MV-4-11 cells (setting [1]), the IC50 was found to be 140 nM.
